Publication PMC9964459, “Nornidulin, A New Inhibitor of Plasmodium falciparum Malate: Quinone Oxidoreductase (PfMQO) from Indonesian Aspergillus sp. BioMCC f.T.8501” (Pharmaceuticals, 2023)

Biological target: T1, Plasmodium falciparum malate:quinone oxidoreductase (PfMQO) (Plasmodium falciparum, UniProt C6KT09)
T1 construct: gene PF3D7_0616800; PfMQO-membrane fraction from PfMQO-expressing recombinant Escherichia coli
T1 sequence (C6KT09 1-521): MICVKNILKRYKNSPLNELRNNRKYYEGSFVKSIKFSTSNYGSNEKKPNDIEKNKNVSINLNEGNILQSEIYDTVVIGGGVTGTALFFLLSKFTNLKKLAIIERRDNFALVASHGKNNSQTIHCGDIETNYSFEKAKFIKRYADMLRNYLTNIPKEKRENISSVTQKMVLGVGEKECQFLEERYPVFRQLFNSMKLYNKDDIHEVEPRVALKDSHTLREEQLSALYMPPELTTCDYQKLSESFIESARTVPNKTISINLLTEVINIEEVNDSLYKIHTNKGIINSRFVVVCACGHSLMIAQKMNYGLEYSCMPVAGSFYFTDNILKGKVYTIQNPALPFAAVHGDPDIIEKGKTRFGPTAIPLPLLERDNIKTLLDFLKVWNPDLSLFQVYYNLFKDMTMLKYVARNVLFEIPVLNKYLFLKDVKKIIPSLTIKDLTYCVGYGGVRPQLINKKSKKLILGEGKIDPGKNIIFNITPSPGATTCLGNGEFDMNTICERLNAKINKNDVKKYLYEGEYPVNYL
Assay: DCIP-reduction enzyme assay (A600, malate/decylubiquinone) with recombinant PfMQO membrane fraction
Type: biochemical

IC50: 51 µM
SMILES: C/C=C(\C)c1c(Cl)c(O)c(C)c2c1Oc1c(Cl)c(O)c(Cl)c(C)c1C(=O)O2 [Fr10, nornidulin]
